# Source: US10463710B2, “Short synthetic peptide for the treatment and/or prophylaxis of autoimmune and inflammatory disorders” (MacKay Memorial Hospital, priority 2015, dated 2019)
# How the values were obtained:
# [1] = in vitro; assay type: cell-based, murine; conditions: mouse
# [2] = test system: LPS-induced arthritis; assay: Rat model of LPS-induced arthritis; assay type: in vivo, Sprague-Dawley rats; conditions: 7-mer 1 mM intraarticular along with LPS, 3 days, FIG. 4
# Procedure: In this study, acute arthritis was induced by direct injection of lipopolysaccharide (LPS) into rat joints in accordance with the procedures described by Pan R Y et al (J Virol. (1999) 73, 3410-3417). Briefly, adult (about 10 weeks old) male Sprague-Dawley rats (initial body wt=312±11 g) were anesthetized by an intraperitoneal injection of a Xylazine (10 mg/kg) and then randomly assigned to experimental groups; their right knees were later treated with a single intraarticular injection of 25 μl of 5% hyaluronic acid (HA) containing LPS (2 μg and 10 μg) or LPS+7-mer. 7-mer (10 mM stock) was dissolved in 25 μl of 5% HA to final concentration 1 mM. On day 2, the group LPS+7-mer or LPS+7-mer analogue was further treated with 7-mer by a single intraarticular is injection. On day 3, the knee joints were dissected and fixed in a 4% paraformaldehyde (PFA) solution and then decalcified with Shandon TBD-2 decalcifier (Thermo Scientific, Logan, Utah). The joints were then sectioned mid-sagittally and embedded in paraffin blocks. Sections (5 μm in thickness) were longitudinally cut, and stained with hematoxylin and eosin (H&E).
# Rheumatoid arthritis (RA) is a chronic inflammatory disease characterized by an inflammation of the synovium leading to the destruction of joint cartilage and eventually the destruction of joint function. […]
# [3] = test system: OVA-induced allergic asthma; assay: Mouse model of OVA-induced allergic asthma; assay type: in vivo, BALB/c mice; conditions: 7-mer 100 μM intranasal twice a day, vs OVA challenged mice, FIG. 6B
# Procedure: BALB/c mice (4- to 5-weeks old females) were sensitized intraperitoneally with 1 μg of ovalbumin (OVA) and 200 μl of 1.5% aluminum hydroxide on days 0 and 7, respectively; and then challenged three times by intranasal injection with 250 μg of OVA on days 21, 22 and 23. Control mice were given OVA with ALUM in sensitization stages, and PBS in place of OVA in challenge stages. For treatment, 7-mer analogue was mixed with 1% CMC eye drop to a concentration 100 μM. On day 20 and after the OVA challenge (day 21), the mice were randomly assigned to two experimental groups (n=6 per group) is and the nasal was injected with 20 μl of 7-mer or vehicle drop twice a day for 4 days (to day 23). Twenty-four hrs after the final challenge with OVA (day 24), mice were euthanized and their eyes were harvested, fixed overnight in 4% paraformaldehyde and embedded in paraffin.
# In this example, we investigate the efficacy of the present synthetic peptide on allergic asthma by use of the well-characterized murine model of allergic airway disease, employing ovalbumin as the antigen. The experimental murine asthma model was established in accordance with the procedures described in the section of “Materials and Methods,” and as depicted in panel A of FIG. 6.
smiles,measurement,setting,value
"CC(=O)N[C@@H](CC(=O)O)C(=O)N[C@@H](CC(C)C)C(=O)N[C@@H](Cc1ccc(O)cc1)C(=O)N[C@@H](CCCNC(=N)N)C(=O)N[C@H](C(=O)N[C@@H](CCCNC(=N)N)C(=O)N[C@@H](CO)C(N)=O)C(C)C [7-mer, NH2-Asp-Leu-Tyr-Arg-Val-Arg-Ser-COOH]","viability at 24 h, 20 μM",[1]; Rar264.7 cell viability,55 ± 3.66%
same,"viability at 24 h, 20 μM",[1]; Raw264.7 cell viability,55.7 ± 4.24%
same,"inflammation in the knee (synoviocyte proliferation, leukocyte infiltration, H&E)",[2],significantly attenuated
same,"inflammatory cell infiltration (peribronchial, perivascular; H&E)",[3],significantly reduced
same,mucus secretion (PAS staining),[3],markedly reduced
